Assay results from patent US10183021B2, “sGC stimulators” (Ironwood Pharmaceuticals, Inc., priority 2013, dated 2019).

Biological target: soluble guanylate cyclase (sGC) (Homo sapiens (Human), UniProt Q02108+Q02153)
Experiment: sGC-HEK-cGMP assay, new protocol with DETA-NONOate, LC/MS detection (Example 2C)
Assay type: cell-based
Details: read-out: Absolute EC50 (uM) - binned
Experimental: Human embryonic kidney cells (HEK293), endogenously expressing soluble guanylate cyclase (sGC), were used to evaluate the activity of test compounds. Compounds stimulating the sGC enzyme should cause an increase in the intracellular concentration of cGMP. HEK 293 cells were seeded in Dulbecco's Modification of Eagle's Medium supplemented with fetal bovine serum (10% final) and penicillin (100 U/mL)/streptomycin (100 μg/mL) in a 50 μL volume at a density of 1.5×10^4 cells/well in a poly-D-lysine coated 384 well flat bottom plate. Cells were incubated overnight at 37° C. in a humidified chamber with 5% CO2. Medium was aspirated and cells were washed with 1× Hank's Buffered Saline Salt Solution (50 μL). Cells were then incubated for 15 minutes at 37° C. with 50 μL of a 0.5 mM 3-isobutyl-1-methylxanthine (IBMX) solution. Test article and Diethylenetriamine NONOate (DETA-NONOate) solutions (x μM concentration for test article solution and 10 μM concentration for DETA-NONOate solution; wherein x is one of the following concentrations);
were then added to the assay mixture and the resulting mixture incubated at 37° C. for 20 minutes. After the 20 minute incubation, the assay mixture was aspirated and 10% acetic acid containing 150 ng/mL+3-cGMP (internal standard for LCMS) (50 μL) was added to the cells. The plate was incubated at 4° C. for 30 minutes in the acetic acid solution to stop the reaction and lyse the cells. The plates were then centrifuged at 1,000 g for 3 minutes at 4° C. and the supernatant transferred to a clean reaction plate for LCMS analysis.
cGMP concentrations were determined from each sample using the LCMS conditions below (Table 5) and calculated standard curve.
Data were normalized to a high control using the following equation: 100*(Sample−Low Control)/(High Control−Low Control), where the low control is the average of 16 samples treated with 1% DMSO, and the high control is the average of 16 samples treated with 30 μM of 1-329 Data were fit using a 4-parameter fit (log(agonist) vs. response—variable slope) using GraphPad Prism Software v.5. n=2 for all compounds. […] Compounds failing to elicit a minimum response of 50% are reported as >30 μM.

Chain of soluble guanylate cyclase (sGC) (Q02153 whole entry): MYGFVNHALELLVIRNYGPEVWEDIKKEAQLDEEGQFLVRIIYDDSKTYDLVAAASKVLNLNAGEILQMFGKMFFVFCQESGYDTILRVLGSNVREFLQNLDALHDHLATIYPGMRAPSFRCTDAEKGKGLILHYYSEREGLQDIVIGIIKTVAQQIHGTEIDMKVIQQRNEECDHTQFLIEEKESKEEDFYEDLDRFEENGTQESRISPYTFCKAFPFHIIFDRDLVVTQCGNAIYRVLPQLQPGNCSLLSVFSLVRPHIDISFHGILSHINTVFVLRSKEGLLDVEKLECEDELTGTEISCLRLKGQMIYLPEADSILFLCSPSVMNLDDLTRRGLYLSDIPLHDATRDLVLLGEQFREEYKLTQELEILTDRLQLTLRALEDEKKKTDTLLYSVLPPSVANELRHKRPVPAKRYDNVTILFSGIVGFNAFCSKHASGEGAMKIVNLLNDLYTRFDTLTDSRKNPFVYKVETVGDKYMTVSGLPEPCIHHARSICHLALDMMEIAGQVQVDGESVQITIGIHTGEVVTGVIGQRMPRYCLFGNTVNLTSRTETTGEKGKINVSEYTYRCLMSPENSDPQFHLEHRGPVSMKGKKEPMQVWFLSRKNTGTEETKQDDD
Chain of soluble guanylate cyclase (sGC) (Q02108 whole entry): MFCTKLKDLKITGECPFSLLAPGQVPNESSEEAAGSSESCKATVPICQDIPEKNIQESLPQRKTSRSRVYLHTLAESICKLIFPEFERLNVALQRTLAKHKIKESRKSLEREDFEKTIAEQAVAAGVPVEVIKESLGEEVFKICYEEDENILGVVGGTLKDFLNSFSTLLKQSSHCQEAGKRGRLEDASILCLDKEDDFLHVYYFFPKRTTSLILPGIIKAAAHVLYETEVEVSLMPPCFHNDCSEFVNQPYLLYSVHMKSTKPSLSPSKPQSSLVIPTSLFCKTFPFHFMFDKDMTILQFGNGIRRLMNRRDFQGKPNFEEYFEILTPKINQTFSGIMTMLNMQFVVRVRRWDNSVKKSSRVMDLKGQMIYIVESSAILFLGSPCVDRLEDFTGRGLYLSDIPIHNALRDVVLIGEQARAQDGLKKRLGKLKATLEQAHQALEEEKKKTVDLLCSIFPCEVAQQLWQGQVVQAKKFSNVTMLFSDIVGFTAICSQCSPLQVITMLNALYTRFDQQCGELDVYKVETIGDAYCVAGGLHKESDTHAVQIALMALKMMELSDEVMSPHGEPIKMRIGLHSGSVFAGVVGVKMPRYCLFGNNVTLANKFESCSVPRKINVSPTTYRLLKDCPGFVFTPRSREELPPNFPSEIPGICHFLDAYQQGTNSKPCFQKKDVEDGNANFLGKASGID

Compound | EC50 [µM]
C[C@@H]1CN(c2nc(-c3cc(-c4ccon4)n(Cc4ccccc4F)n3)ncc2F)C[C@@H]1C(=O)O [Compound I-314] | < 0.1
Oc1c(F)cc(CNc2nc(-c3cc(-c4ccon4)n(Cc4ccccc4F)n3)ncc2F)cc1F [Compound I-317] | < 0.1
OC[C@H]1CCN(c2nc(-c3cc(-c4ccon4)n(Cc4ccccc4F)n3)ncc2F)[C@@H](CO)C1 [Compound I-318] | < 0.1
O=C(O)[C@H]1[C@@H](c2ccccc2)CCCN1c1nc(-c2cc(-c3ccon3)n(Cc3ccccc3F)n2)ncc1F [Compound I-319] | < 0.1
CN(C[C@H](O)CO)c1nc(-c2cc(-c3ccon3)n(Cc3ccccc3F)n2)ncc1F [Compound I-320] | < 0.1
CN(C[C@@H](O)CO)c1nc(-c2cc(-c3ccon3)n(Cc3ccccc3F)n2)ncc1F [Compound I-321] | < 0.1
OC[C@@H](O)CN(CC1CC1)c1nc(-c2cc(-c3ccon3)n(Cc3ccccc3F)n2)ncc1F [Compound I-322] | < 0.1
CC(C)N(C[C@H](O)CO)c1nc(-c2cc(-c3ccon3)n(Cc3ccccc3F)n2)ncc1F [Compound I-323] | 0.101 to 1
CC(C)(O)CNc1nc(-c2cc(-c3ccon3)n(Cc3ccccc3F)n2)ncc1F [Compound I-325] | < 0.1
O=C(Nc1ccnc(-c2cc(-c3ccon3)n(Cc3ccccc3F)n2)n1)[C@H](O)C(F)(F)F [Compound I-326] | 0.101 to 1
CCOc1c(Nc2ccnc(-c3cc(-c4ccon4)n(Cc4ccccc4F)n3)n2)c(=O)c1=O [Compound I-327] | > 1
O=C(Nc1ccnc(-c2cc(-c3ccon3)n(Cc3ccccc3F)n2)n1)C1(C(F)(F)F)CC1 [Compound I-328] | > 1
C[C@H]1CCCN(c2nc(-c3cc(-c4ccon4)n(Cc4ccccc4F)n3)ncc2F)[C@H]1C(=O)NS(=O)(=O)C1CC1 [Compound I-331] | 0.101 to 1
C[C@H]1CCCN(c2nc(-c3cc(-c4ccon4)n(Cc4ccccc4F)n3)ncc2F)[C@@H]1C(=O)NS(=O)(=O)C1CC1 [Compound I-332] | < 0.1
C[C@H]1CCCN(c2ccnc(-c3cc(-c4ccon4)n(Cc4ccccc4F)n3)n2)[C@H]1C(=O)O [Compound I-333] | < 0.1
OCC(CO)(CO)Nc1nc(-c2cc(-c3ccon3)n(Cc3ccccc3F)n2)ncc1F [Compound I-334] | 0.101 to 1
NC(=O)[C@H](CO)Nc1nc(-c2cc(-c3ccon3)n(Cc3ccccc3F)n2)ncc1F [Compound I-335] | 0.101 to 1
O=C(NC(CO)CO)[C@@H](CO)Nc1nc(-c2cc(-c3ccon3)n(Cc3ccccc3F)n2)ncc1F [Compound I-336] | > 1
O=C(O)c1cccc2c1CN(c1nc(-c3cc(-c4ccon4)n(Cc4ccccc4F)n3)ncc1F)CC2 [Compound I-339] | < 0.1
CN(CC1(C(=O)O)CC1)c1nc(-c2cc(-c3nccs3)n(Cc3ccccc3F)n2)ncc1F [Compound I-343] | < 0.1
CC(C)[C@H](CN(C)c1nc(-c2cc(-c3ccon3)n(Cc3ccccc3F)n2)ncc1F)NS(=O)(=O)C1CC1 [Compound I-344] | < 0.1

Compound | EC50 [µM]
CN(CC1(C(=O)O)CC1)c1nc(-c2cc(-c3cscn3)n(Cc3ccccc3F)n2)ncc1F [Compound I-345] | < 0.1
Fc1ccccc1Cn1nc(-c2ncc(F)c(N3CCc4[nH]nc(C(F)(F)F)c4C3)n2)cc1-c1ccon1 [Compound I-346] | > 1
O[C@@H]1[C@H](O)CN(c2nc(-c3cc(-c4ccon4)n(Cc4ccccc4F)n3)ncc2F)C[C@@H]1O [Compound I-347] | < 0.1
NCC(O)CNc1nc(-c2cc(-c3ccon3)n(Cc3ccccc3F)n2)ncc1F (stereo not shown) [Compound I-348] | > 1
CS(=O)(=O)NCC(O)CNc1nc(-c2cc(-c3ccon3)n(Cc3ccccc3F)n2)ncc1F (stereo not shown) [Compound I-349] | < 0.1
O[C@@H]1CN(c2nc(-c3cc(-c4ccon4)n(Cc4ccccc4F)n3)ncc2F)CC[C@@H]1O [Compound I-350] | < 0.1
CC(C)(C)OC(=O)N1CC(O)(CNc2nc(-c3cc(-c4ccon4)n(Cc4ccccc4F)n3)ncc2F)C1 [Compound I-351] | < 0.1
OCC(O)(CCl)CNc1nc(-c2cc(-c3ccon3)n(Cc3ccccc3F)n2)ncc1F (stereo not shown) [Compound I-352] | < 0.1
OC1(CNc2nc(-c3cc(-c4ccon4)n(Cc4ccccc4F)n3)ncc2F)CNC1 [Compound I-353] | > 1
O=S(=O)(NC1(CNc2nc(-c3cc(-c4ccon4)n(Cc4ccccc4F)n3)ncc2F)CC1)C(F)(F)F [Compound I-354] | < 0.1
OCC(O)(CNc1nc(-c2cc(-c3ccon3)n(Cc3ccccc3F)n2)ncc1F)C(F)(F)F (stereo not shown) [Compound I-355] | < 0.1
O=C1NCC[C@@H]1Nc1nc(-c2cc(-c3ccon3)n(Cc3ccccc3F)n2)ncc1F [Compound I-356] | 0.101 to 1
OC(C1CN(c2nc(-c3cc(-c4ccon4)n(Cc4ccccc4F)n3)ncc2F)C1)(C(F)(F)F)C(F)(F)F [Compound I-357] | > 1
O=C(O)C1(CNc2nc(-c3cc(-c4ccon4)n(Cc4ccccc4F)n3)ncc2F)CC1 [Compound I-358] | < 0.1
O=C(O)C1(c2ccc(Nc3nc(-c4cc(-c5ccon5)n(Cc5ccccc5F)n4)ncc3F)cc2)CC1 [Compound I-360] | < 0.1
CC(=O)c1cc(-c2ncc(F)c(NCC(O)(C(F)(F)F)C(F)(F)F)n2)nn1Cc1ccccc1F [Compound I-362] | 0.101 to 1
O=S(=O)(O)C1CCN(c2nc(-c3cc(-c4ccon4)n(Cc4ccccc4F)n3)ncc2F)CC1 [Compound I-363] | > 1
Oc1n[nH]c2c1CCN(c1nc(-c3cc(-c4ccon4)n(Cc4ccccc4F)n3)ncc1F)C2 [Compound I-370] | < 0.1
CN(Cc1nc(C(=O)O)cs1)c1nc(-c2cc(-c3ccon3)n(Cc3ccccc3F)n2)ncc1F [Compound I-373] | 0.101 to 1
O=C(O)c1cccc(CCNc2nc(-c3cc(-c4ccon4)n(Cc4ccccc4F)n3)ncc2F)c1 [Compound I-377] | < 0.1
CCOC(=O)C1=C(O)CN(c2nc(-c3cc(-c4ccon4)n(Cc4ccccc4F)n3)ncc2F)CC1 [Compound I-378] | < 0.1

Compound | EC50 [µM]
O=C(O)[C@H]1CCC[C@@H](Nc2nc(-c3cc(-c4ccon4)n(Cc4ccccc4F)n3)ncc2F)C1 [Compound I-380] | < 0.1
O=S(=O)(CCNc1nc(-c2cc(-c3ccon3)n(Cc3ccccc3F)n2)ncc1F)NCC(F)(F)F [Compound I-381] | < 0.1
CNC(=O)C(C)(O)CN(C)c1nc(-c2cc(-c3ccon3)n(Cc3ccccc3F)n2)ncc1F (stereo not shown) [Compound I-382] | < 0.1
CN(CC(C)(C)C(=O)O)c1nc(-c2cc(-c3ccon3)n(Cc3ccccc3F)n2)ncc1F [Compound I-383] | < 0.1
CC(=O)NS(=O)(=O)CCNc1nc(-c2cc(-c3ccon3)n(Cc3ccccc3F)n2)ncc1F [Compound I-385] | 0.101 to 1
O=C(Nc1ccnc(-c2cc(-c3ccon3)n(Cc3ccccc3F)n2)n1)c1cc[nH]n1 [Compound I-386] | > 1
O=C(NC1CN(c2nc(-c3cc(-c4ccon4)n(Cc4ccccc4F)n3)ncc2F)C1)C(F)(F)F [Compound I-387] | < 0.1
CC(C)(C)OC(=O)NCCNc1nc(-c2cc(-c3ccon3)n(Cc3ccccc3F)n2)ncc1F [Compound I-390] | < 0.1
NCCNc1nc(-c2cc(-c3ccon3)n(Cc3ccccc3F)n2)ncc1F [Compound I-391] | 0.101 to 1
O=S(=O)(NCCNc1nc(-c2cc(-c3ccon3)n(Cc3ccccc3F)n2)ncc1F)C(F)(F)F [Compound I-392] | < 0.1
CN(CC(C)(O)C(N)=O)c1nc(-c2cc(-c3ccon3)n(Cc3ccccc3F)n2)ncc1F (stereo not shown) [Compound I-393] | 0.101 to 1
O=S(=O)(N1CC(Nc2nc(-c3cc(-c4ccon4)n(Cc4ccccc4F)n3)ncc2F)C1)C(F)(F)F [Compound I-394] | > 1
O[C@@H]1Cc2ccccc2[C@@H]1Nc1nc(-c2cc(-c3ccon3)n(Cc3ccccc3F)n2)ncc1F [Compound I-395] | < 0.1
OC1(C(F)(F)F)CN(c2nc(-c3cc(-c4ccon4)n(Cc4ccccc4F)n3)ncc2F)C1 [Compound I-396] | < 0.1
OC1(CNc2nc(-c3cc(-c4ccon4)n(Cc4ccccc4F)n3)ncc2F)CCOCC1 [Compound I-397] | < 0.1
O=C(O)C(CC(F)F)Nc1nc(-c2cc(-c3ccon3)n(Cc3ccccc3F)n2)ncc1F (stereo not shown) [Compound I-398] | > 1
OCC(CC(F)F)Nc1nc(-c2cc(-c3ccon3)n(Cc3ccccc3F)n2)ncc1F (stereo not shown) [Compound I-399] | < 0.1
COC(=O)[C@@H]1CCC(=O)N1c1nc(-c2cc(-c3ccon3)n(Cc3ccccc3F)n2)ncc1F [Compound I-401] | > 1
O=c1c(O)c(Nc2ccnc(-c3cc(-c4ccon4)n(Cc4ccccc4F)n3)n2)c1=O [Compound I-402] | > 1
